# Data published in patent US20190211317A1, “PEPTIDES AND NANOPARTICLES FOR INTRACELLULAR DELIVERY OF GENOME-EDITING MOLECULES” (Aadigen, LLC, priority 2016, published 2019).
# Several values for one entry are separate records, joined by “and”; a condition that tells them apart may be missing. Equal values may be shown once. Non-standard residues stand in square brackets, D forms with d. Residues, ends and D or L forms follow the SMILES beside them. βAla = NCCC(=O)O
# Assays:
# [1] = system: endogenous EMX1 gene in U2OS, HEPG2, K562 cells and primary human fibroblasts; assay: EMX1 editing from CPP delivery of CAS9 mRNA/gRNA (T7E1); assay type: cell-based
# Protocol: CPP/CAS9 mRNA/gRNA complexes were formed by mixing the CAS9 mRNA (0.5 μg) and gRNA (5 μg) with CPP at a 20:1 molar ratio of CPP:cargo and incubating for 30 min at 37° C. prior to cell transfection. Suspension and adherent cells were transfected according to the protocols described in Example 13a. RNAiMAX-mediated delivery (Invitrogen Thermo Fisher France) was used as a control. EMX1 gene editing was analyzed at day 3 and day 6 by T7E1 assay and quantified using a Fragment Analyzer System.
# [2] = system: endogenous EMX1 gene in primary human T cells; assay: EMX1 editing in primary human T cells with CAS9 mRNA, protein or plasmid plus gRNA (T7E1); assay type: cell-based
# Protocol: CPP/CAS9 mRNA/gRNA complexes were formed by mixing the CAS9 mRNA (0.5 μg) and gRNA (5 μg) with CPP at a 20:1 molar ratio of CPP to nucleic acid (mRNA+gRNA) and incubating for 30 min at 37° C. prior to cell transfection. CPP/plasmid/gRNA complexes were formed by mixing CAS9 expressing plasmid (Addgene MLM3639-Plasmid #42252) (0.5 μg) and gRNA (5 μg) with CPP at a 20:1 molar ratio of CPP to nucleic acid (plasmid+gRNA) and incubating for 30 min at 37° C. prior to cell transfection. CPP/CAS9/gRNA complexes were formed by mixing preloaded CAS9/gRNA complexes (2.5 μg/5 μg CAS9/gRNA) with CPP at a 20:1 molar ratio of CPP to complex and incubating for 30 min at 37° C. prior to cell transfection.
# T cells were transfected according to the protocol for suspension cells described in Example 13a. Lipofectamine 2000- and RNAiMAX-mediated delivery methods (Invitrogen Thermo Fisher France) were included as controls. EMX1 gene editing was analyzed at day 3, day 6, and day 10 by T7E1 assay and quantified using a Fragment Analyzer System.
# [3] = system: EGFP reporter gene in EGFP-U2OS, EGFP-HEK, EGFP-JURKAT cells; assay: EGFP reporter gene disruption from CPP delivery of CAS9:sgRNA (flow cytometry); assay type: cell-based, human; conditions: for reduction of EGFP-positive cells: EGFP-JURKAT; for decrease in EGFP expression: CAS9:gRNA 50 nM, CPP:cargo 20:1; for reduction of EGFP-expressing cells / loss of EGFP expression: JURKAT; for reduction of EGFP-expressing cells / loss of EGFP expression / loss of EGFP expression: 1 nM CAS9:gRNA; for loss of EGFP expression: both cell lines (U2OS, HEK);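 for all read-outs here: cells carrying one integrated EGFP reporter received peptide-complexed CAS9 preloaded 1:1 with EGFP sgRNA, cultured 72 h, then EGFP level read by flow cytometry, lipofectamine 2000 and RNAiMAX as positive controls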
# Protocol: Efficacy of CPP-mediated delivery was quantified using a well-established CAS9-induced gene disruption method (Fu et al, 2013, supra), by targeting a specific site in the exogenous EGFP gene reporter in three human cell lines expressing EGFP (GFP-U2OS, EGFP-HEK, EGFP-JURKAT).
# Stock solutions of amphipathic peptides were prepared at 1 mg/mL in distilled water and sonicated for 10 min. CAS9 protein was preloaded with purified EGFP sgRNA at a molar ratio of 1:1 and incubated for 10 min prior to forming complexes with the peptides. Preloaded CAS9/gRNA complexes (10 nM, 25 nM, and 50 nM) were mixed with CPPs at 5:1, 10:1 and 20:1 molar ratios of CPP to cargo and incubated for 30 min at 37° C. prior to cell transfection.
# Cell line containing a single integrated EGFP reporter gene (GFP-U2OS, EGFP-HEK and EGFP-JURKAT) were cultured in Dulbecco's Modified Eagle's Medium (DMEM), supplemented with 2 mM glutamine, 1% antibiotics (streptomycin 10,000 μg/mL, penicillin, 10,000 IU/mL) and 10% (w/v) foetal calf serum (FCS) at 37° C. in a humidified atmosphere containing 5% CO2. A total of 150,000 cells seeded in a 35 mm dish the day prior to transfection were grown to 50-60% confluence and overlaid with 200 μl of preformed complexes, incubated for 3-5 min, then 400 μl of DMEM was added. After 30 min incubation at 37° C., 1 mL of fresh DMEM containing 16% FCS was added to reach a final FCS concentration of 10%, without removing the overlay of CPP/CAS9-gRNA complexes. Cells were returned to the incubator for 72 hours.
# CAS9-induced double-strand break formation was analyzed using flow cytometry by monitoring level of EGFP expression. […] Both lipofectamine 2000 and RNAiMAX delivery methods were used as positive controls.
# [4] = Particle size, polydispersity and zeta potential with different cargoes (Zetasizer NANO ZS P); assay type: physicochemical; conditions: 20:1; for formation of stable nanoparticles: with CAS9-mRNA and CAS9-mRNA/gRNA complex
# Protocol: The CPP/CAS9-protein, CPP/CAS9-protein/sgRNA, CPP/CAS9-mRNA, CPP/CAS-mRNA/sgRNA particles were characterized; the mean size, polydispersity, and zeta potential were measured with a Zetasizer NANO ZS P apparatus (Malvern Ltd).
# The mean size and the polydispersity of the CCP/cargo complexes were determined at 25° C. for 5 min per measurement and zeta potential was measured with a Zetasizer NANO ZS P apparatus (Malvern Ltd).
# [5] = CPP/CAS9 and CPP/CAS9:gRNA particle size, polydispersity, zeta potential (Zetasizer 4); assay type: physicochemical
# Protocol: The CPP/CAS9 and CPP/CAS9/sgRNA particles were further characterized; the mean size, polydispersity and zeta potential were measured with Zetasizer 4 apparatus (Malvern Ltd). […] The mean size and the polydispersity of the CCP/CAS9 and CCP/CAS9:gRNA complexes were determined at 25° C. for 3 min per measurement and zeta potential was measured with Zetasizer 4 apparatus (Malvern Ltd).
# PCSK9 = assay: In vivo CAS9 mRNA/gRNA targeting PCSK9: serum PCSK9 (ELISA); design: species or system mouse
# Protocol: Polyadenylated and capped CAS9 mRNA was obtained from ThermoFisher, and gRNA (5 μg) targeting PCSK9 Exon 1 was obtained from Eurogentec. […] Free CAS9 mRNA/gRNA was injected as a control.
# Blood samples were collected by saphenous vein bleeds at multiple time points (day 3, 6, 10, and 21), collecting no more than 100 μl or 10% of total blood volume per week. Serum levels of PCSK9 were determined by ELISA using the Mouse Proprotein Convertase 9/PCSK9 Quantikine ELISA Kit (MPC-900, R&DSystems).
# [6] = system: endogenous EMX1 gene in U2OS, JURKAT and K562 cells; assay: EMX1 gene editing from CPP delivery of CAS9/gRNA (T7E1 assay); assay type: cell-based, human
# Protocol: RNAiMAX delivery was used as a positive control as it was previously reported to show better results than Lipofectamine 2000 (Zuris et al., 2015, supra). […] Cells were returned to the incubator for 72 hours.
# primary human T cells = assay: CAS9 protein expression in primary human T cells after CAS9 mRNA or plasmid delivery (ELISA); assay type: cell-based; conditions: day 3
# Protocol: T cells were isolated from PBMCs using anti-CD3/anti-CD28 antibodies bound to paramagnetic beads (Dynabeads ClinExVivo CD3/CD28, Invitrogen) at a ratio of 3:1 (beads:cells). The cells and beads were co-incubated for 2 hours at room temperature and CD3^+ cell enrichment was performed using Dynal ClinExVIVO MPC magnet (Thermo Fisher). The anti-CD3/anti-CD28 paramagnetic beads were removed, washed and concentrated. Cells in the CD3^+ fraction were resuspended in activation media at a concentration of 1×10^6 cells/ml with AIM-V medium (Thermo Fishers) supplemented with 10% fetal calf serum, 300 IU/ml IL2 and 50 ng/ml OKT3 (MuromonAB-CD3) for two days.
# CPP/CAS9 complexes were formed by mixing the CAS9 mRNA (0.5 μg) with CPP at a 20:1 molar ratio of CPP:CAS9 mRNA and incubating for 30 min at 37° C. prior to cell transfection. CPP/CAS9-expressing plasmid complexes were formed by mixing the CAS9-expressing plasmid (Addgene MLM3639-Plasmid #42252) (0.5 μg) with CPP at a 20:1 molar ratio of CPP:plasmid and incubating for 30 min at 37° C. prior to cell transfection.
# Cells were transfected according to the protocol for suspension cells described in Example 13a. RNAiMAX and lipofectamine 2000 lipid-based delivery methods (Invitrogen Thermo Fisher France) were used as controls, and transfections were performed following the manufacturer's instructions. CAS9 protein expression level was analyzed at multiple time points over a period of 10 days as determine by ELISA on protein extracts using antibodies against CRISPR/Cas9 obtained from Diagenode (Diagenode cat. No. C15200223) and ABCAM (clone 7A9-ab191468).
# Swiss mice = assay: In vivo delivery of CAS9 mRNA by three CPPs: CAS9 expression in tissues (ELISA); design: species or system mouse; conditions: for ELISA signal for CAS9 protein expression: day 3 and day 6, CAS9 mRNA 5 μg i.v., 20:1; for CAS9 protein expression: other tissues examined
# Protocol: Free CAS9 mRNA in physiological buffer was injected as a control.
# At day 3, day 6, and day 10 following injection, animals were sacrificed and tissues including lung, liver, brain, kidney, heart, spleen, blood, pancreas, muscle, bone marrow, and intestine were collected. Tissues were homogenized and CAS9 protein levels in protein extracts were analyzed by ELISA using an antibody against CRISPR/Cas9 (SBI clone 7A9).
# [7] = system: endogenous EMX1 gene in U2OS, HEPG2 cells and primary human fibroblasts; assay: EMX1 editing from CPP delivery of CAS9-expressing plasmid and gRNA (T7E1); assay type: cell-based; conditions: the three cell types
# Protocol: EMX1-targeting gRNAs were prepared as described above. CPP/plasmid/gRNA complexes were prepared by mixing 0.5 μg of a CAS9-expressing plasmid (Addgene MLM3639-Plasmid #42252) and 5 μg gRNA with CPP at a 20:1 molar ratio of CPP to nucleic acid (plasmid+gRNA) and incubating for 30 min at 37° C. prior to cell transfection. Suspension and adherent cells were transfected according to the protocols described in Example 13a. Lipofectamine 2000- and RNAiMAX-mediated delivery methods (Invitrogen Thermo Fisher France) were used as controls. EMX1 gene editing was analyzed at day 3 and day 6 by T7E1 assay and quantified using a Fragment Analyzer System.
# [8] = system: endogenous EMX1 and exogenous EGFP reporter genes in GFP-U2OS, EGFP-JURKAT cells; assay: Delivery of multiple RGEN/gRNA complexes: EMX1 and EGFP editing; assay type: cell-based, human
# Protocol: RNAiMAX delivery was used as positive control. Cells were treated as described previously and CAS9-induced NHEJ analyzed 72 hr after transfection. […] The deletion (indel) frequency in the EMX1 gene was quantified using the T7E1 assay and loss of EGFP expression was monitored by flow cytometry. Data for on-target mutations induced by RGEN/gRNA are reported as an average of 3 separate experiments.
# [9] = system: U2OS, HEPG2, K562 cells and primary human fibroblasts; assay: CAS9 protein expression after CPP delivery of CAS9 mRNA (ELISA); assay type: cell-based; conditions: day 3
# Protocol: CPP/CAS9 mRNA complexes were formed by mixing the CAS9 mRNA (0.5 μg) with CPP at a 20:1 molar ratio of CPP:CAS9 mRNA and incubating for 30 min at 37° C. prior to cell transfection. Cells were transfected according to optimized protocols for either adherent or suspension cell lines.
# Human primary fibroblasts were freshly obtained and grown in flasks pre-coated with a gelatin-based coating solution and incubated in Culture Complete Growth Medium for 3 days before expansion and treatment. U2OS cells were cultured in Dulbecco's Modified Eagle's Medium (DMEM), supplemented with 2 mM glutamine, 1% antibiotics (streptomycin 10,000 μg/mL, penicillin, 10,000 IU/mL) and 10% (w/v) foetal calf serum (FCS), at 37° C. in a humidified atmosphere containing 5% CO2. 35 mm dishes seeded with 150,000 cells the day prior to transfection were grown to 50-60% confluence and set up to be at about 70% confluences at the time of transfection. Before transfection, cells were washed with DMEM (2×) followed by PBS (1×). Cells were then overlaid with 0.2 ml of complex solution (16 μl CPP/Cargo complex in water+184 μl OPTiMEM without antibiotics), mixed gently, and incubated for 10 min at 37° C. 0.8 mL of fresh OPTiMEM or DMEM was then added and cells were incubated for 20 min at 37° C. 2 mL of complete OPTiMEM (high glucose) or DMEM containing 11.4% FCS was then added in order to reach a final FCS concentration of 10%, without removing the overlay of CPP/Cargo complexes. Cells were returned to the incubator (37° C., 5% CO2) and assayed at 72 hours post transfection.
# K562 and HEpG2 cells were set up to be at about 70% confluence at the time of transfection. The cells were maintained in high glucose DMEM media with 10% serum. Before transfection, cells were harvested by centrifugation, then washed with DMEM (2×) followed by PBS (1×). Cells were then resuspended in 0.2 ml of complex solution (16 μl CPP/Cargo complex in water+184 μl OPTiMEM without antibiotics), mixed gently, and incubated for 10 min at 37° C. 0.8 mL of fresh OPTiMEM was then added and cells were incubated for 20 min at 37° C. 2 mL of complete OPTiMEM (high glucose) containing 11.4% FCS was then added in order to reach a final FCS concentration of 10%, without removing the overlay of CPP/Cargo complexes. Cells were returned to the incubator (37° C., 5% CO2) and assayed at 72 hours post transfection.
# RNAiMAX lipid-based delivery (Invitrogen Thermo Fisher France) was used as a control and transfections were performed following the manufacturer's instructions. CAS9 expression level was analyzed at multiple time points over a period of 10 days as determined by ELISA on protein extracts using antibodies against CRISPR/Cas9 obtained from Diagenode (Diagenode cat. No. C15200223) and ABCAM (clone 7A9-ab191468).
# [10] = system: U2OS and HEPG2 cell lines and primary human fibroblasts; assay: CAS9 protein expression after CPP delivery of CAS9-expressing plasmid (ELISA); assay type: cell-based; conditions: day 6
# Protocol: CPP/plasmid complexes were prepared by mixing 0.5 μg of a CAS9-expressing plasmid (Addgene MLM3639-Plasmid #42252) with CPP at a 20:1 molar ratio of CPP:cargo and incubating for 30 min at 37° C. prior to cell transfection. Cells were transfected according to the protocols for adherent and suspension cells described in Example 13a. Lipofectamine 2000 was used as lipid-based delivery control. CAS9 protein expression level was analyzed at multiple time points over a period of 10 days as determined by ELISA on protein extracts using antibodies against CRISPR/Cas9 obtained from Diagenode (Diagenode cat. No. C15200223) and ABCAM (clone 7A9-ab191468).
# [11] = system: endogenous EMX1 gene in U2OS, HEPG2, K562 cells and primary human fibroblasts; assay: EMX1 editing from CPP delivery of CAS9 protein/gRNA (T7E1); assay type: cell-based; conditions: each of the cell types tested; 2.5 μg/5 μg CAS9/gRNA
# Protocol: CPP/CAS9/gRNA complexes were prepared by mixing preloaded CAS9/gRNA complexes (2.5 μg/5 μg CAS9/gRNA) with CPP peptides at a 20:1 molar ratio of CPP to cargo and incubating for 30 min at 37° C. prior to cell transfection. Cells were transfected according to the protocols described in Example 13a, and RNAiMAX-mediated delivery (Invitrogen Thermo Fisher France) was used as a control. EMX1 gene editing was analyzed at day 3 and day 6 by T7E1 assay and quantified using a Fragment Analyzer System.
# [12] = CAS9-expressing plasmid and gRNA, day 3
# [13] = with CAS9-mRNA and CAS9-mRNA/gRNA
# [14] = day 1, CAS9 mRNA 5 μg/gRNA 5 μg single i.v.
smiles,measurement,setting,value
CC(C)C[C@H](NC(=O)CCN)C(=O)N[C@@H](CCCNC(=N)N)C(=O)N[C@@H](Cc1c[nH]c2ccccc12)C(=O)N[C@@H](Cc1c[nH]c2ccccc12)C(=O)N[C@@H](CC(C)C)C(=O)N[C@@H](CCCNC(=N)N)C(=O)N[C@@H](Cc1c[nH]c2ccccc12)C(=O)N[C@@H](C)C(=O)N[C@@H](CO)C(=O)N[C@@H](CCCNC(=N)N)C(=O)N[C@@H](Cc1c[nH]c2ccccc12)C(=O)N[C@@H](Cc1ccccc1)C(=O)N[C@@H](CO)C(=O)N[C@@H](CCCNC(=N)N)C(=O)N[C@@H](Cc1c[nH]c2ccccc12)C(=O)N[C@@H](C)C(=O)N[C@@H](Cc1c[nH]c2ccccc12)C(=O)N[C@@H](Cc1c[nH]c2ccccc12)C(=O)N[C@@H](CCCNC(=N)N)C(=O)O [VEPEP-9],mean indel frequencies,[1],about 10%
same,mean indel frequencies,[2]; [12],about 30%
same,mean indel frequencies,[2]; CAS9 protein/gRNA,about 20%
same,reduction of EGFP-positive cells,[3],22%
same,decrease in EGFP expression,[3]; HEK,58%
same,reduction of EGFP-expressing cells / loss of EGFP expression,[3],no change in EGFP expression
same,decrease in EGFP expression,[3]; U2OS,55%
same,loss of EGFP expression,[3],5%
same,formation of stable nanoparticles,[4],able to form stable nanoparticles
same,Mean diameter,[4]; [13],~120 nm
same,mean particle size,[4]; with preloaded CAS9-protein/gRNA complex,210±20
same,PI,"[5]; Cas9:gRNA, molar ratio 20/1",0.58 and 0.58 ± 0.1
same,Size,"[5]; Cas9:gRNA, molar ratio 20/1",170±10 nm
same,zeta,"[5]; Cas9:gRNA, molar ratio 20/1",39 ± 8 MV
same,Pt,"[5]; Cas9, molar ratio 20/1",0.45 ± 0.1
same,Size,"[5]; Cas9, molar ratio 20/1",280 ± 20 nm
same,zeta,"[5]; Cas9, molar ratio 20/1",32 ± 5 mV
same,formation of stable particles with preloaded CAS9:gRNA complex,[5]; molar ratio 10:1,neither CADY nor VEPEP-9 formed stable particles
same,decrease of serum levels of PSCK9,PCSK9; [14],13%
same,decrease of serum levels of PSCK9,PCSK9; day 3,29%
same,decrease of serum levels of PSCK9,PCSK9; day 6,31%
same,decrease of serum levels of PSCK9,PCSK9; day 10,27%
same,decrease of serum levels of PSCK9,PCSK9; day 14,25%
same,decrease of serum levels of PSCK9,PCSK9; day 20,24%
same,Mean indel Frequency ± S.E.M,"[6]; JURICAT, CAS9/sgRNA 25 nM",21% and 21 ± 7%
same,Mean indel Frequency ± S.E.M,"[6]; JURKAT, CAS9/sgRNA 50 nM",21 ± 5%
same,Mean indel Frequency ± S.E.M,"[6]; K562, CAS9/sgRNA 25 nM",29% and 29 ± 7%
same,Mean indel Frequency ± S.E.M,"[6]; K562, CAS9/sgRNA 50 nM",25 ± 5%
same,Mean indel Frequency ± S.E.M,"[6]; U2OS, CAS9/sgRNA 25 nM, 20:1",27% and 27 ± 3%
same,Mean indel Frequency ± S.E.M,"[6]; U2OS, CAS9/sgRNA 50 nM",30 ± 6%
same,ELISA signal for CAS9 protein expression,primary human T cells; CAS9-expressing plasmid 0.5 μg,about 4 times the background
same,ELISA signal for CAS9 protein expression,primary human T cells; CAS9 mRNA 0.5 μg,about 4 times the background
same,CAS9 expression,"Swiss mice; day 10, brain",CAS9 expression was observed
same,CAS9 expression,"Swiss mice; day 10, liver",CAS9 expression was observed
same,CAS9 expression,"Swiss mice; day 10, lymph node",CAS9 expression was observed
same,ELISA signal for CAS9 protein expression,Swiss mice; liver,> 8 times that of background
same,CAS9 protein expression,Swiss mice,Little to no increase
same,mean indel frequencies,[7],35-40%
same,Mean indel Frequency ± S.E.M,"[8]; JURKAT, EGFP",15 ± 8%
same,Mean indel Frequency ± S.E.M,"[8]; JURKAT, EMX1",10 ± 2%
same,Mean indel Frequency ± S.E.M,"[8]; U2OS, EGFP, 25 nM each complex",32 ± 4%
same,Mean indel Frequency ± S.E.M,"[8]; U2OS, EMX1",31 ± 5%
CC(C)C[C@H](NC(=O)CCN)C(=O)N[C@@H](Cc1c[nH]c2ccccc12)C(=O)N[C@@H](CCCNC(=N)N)C(=O)N[C@@H](C)C(=O)N[C@@H](CC(C)C)C(=O)N[C@@H](Cc1c[nH]c2ccccc12)C(=O)N[C@@H](CCCNC(=N)N)C(=O)N[C@@H](CC(C)C)C(=O)N[C@@H](Cc1c[nH]c2ccccc12)C(=O)N[C@@H](CCCNC(=N)N)C(=O)N[C@@H](CO)C(=O)N[C@@H](CC(C)C)C(=O)N[C@@H](Cc1c[nH]c2ccccc12)C(=O)N[C@@H](CCCNC(=N)N)C(=O)N[C@@H](CC(C)C)C(=O)N[C@@H](CC(C)C)C(=O)N[C@@H](Cc1c[nH]c2ccccc12)C(=O)N[C@@H](CCCCN)C(=O)N[C@@H](C)C(=O)O [VEPEP-6] (H-[βAla]LWRALWRLWRSLWRLLWKA-OH; N-terminus and C-terminus assumed),mean indel frequencies,[1],about 60%
same,ELISA signal for CAS9 protein expression,"[9]; U2OS, K562, HepG2, CAS9 mRNA 0.5 μg",~30 times the background
same,ELISA signal for CAS9 protein expression,[9]; primary human fibroblasts,about 20 times the background
same,mean indel frequencies,[2]; [12],little to no EMX1 gene editing
same,mean indel frequencies,[2]; CAS9 protein/gRNA,little to no EMX1 gene editing
same,reduction of EGFP-positive cells,[3],no significant change
same,decrease in EGFP expression,[3]; HEK,30%
same,reduction of EGFP-expressing cells / loss of EGFP expression,[3],no change in EGFP expression
same,decrease in EGFP expression,[3]; U2OS,25%
same,loss of EGFP expression,[3],no change in EGFP expression
same,formation of stable nanoparticles,[4],able to form stable nanoparticles
same,Mean diameter,[4]; [13],~100 nm
same,polydispersity index (PI),[4]; [13],0.2
same,decrease of serum levels of PSCK9,PCSK9; [14],64%
same,decrease of serum levels of PSCK9,PCSK9; day 3,73%
same,decrease of serum levels of PSCK9,PCSK9; day 6,75%
same,decrease of serum levels of PSCK9,PCSK9; day 10,73%
same,decrease of serum levels of PSCK9,PCSK9; day 14,71%
same,decrease of serum levels of PSCK9,PCSK9; day 20,70%
same,ELISA signal for CAS9 protein expression,primary human T cells; CAS9-expressing plasmid 0.5 μg,little to no CAS9 expression
same,ELISA signal for CAS9 protein expression,primary human T cells; CAS9 mRNA 0.5 μg,~17 times the background
same,CAS9 expression,"Swiss mice; day 10, brain",CAS9 expression was observed
same,CAS9 expression,"Swiss mice; day 10, liver",CAS9 expression was observed
same,CAS9 expression,"Swiss mice; day 10, lung",CAS9 expression was observed
same,ELISA signal for CAS9 protein expression,Swiss mice; liver,> 15 times that of background
same,CAS9 expression,Swiss mice; lung,about 8 times that of background
same,CAS9 protein expression,Swiss mice,Little to no increase
same,ELISA signal for CAS9 protein expression,[10]; U2OS and HEPG2,about 4 times the background
same,ELISA signal for CAS9 protein expression,[10]; primary human fibroblasts,about 2 times the background
same,mean indel frequencies,[11],no significant EMX1 gene editing
